Reference: paper PMC7397040, “New Copper(I) Complex with a Coumarin as Ligand with Antibacterial Activity against Flavobacterium psychrophilum” (Molecules, 2020)
In brackets after ≈: the same amount, converted by molar mass. Read-outs that look alike come from different tables or passages of the source. Marks after values point to notes of the source that are not given here.

Assays:
[1] = test system: Salmon Head Kidney-1 (SHK-1) cells; experiment: cells; details: for toxicity (in words): SHK-1, 512 to 2 μg/mL; for IC50 (cellular): SHK-1, 24 h at 16 °C, n = 6
Procedure: (§1) Since F. psychrophilum is a bacterial pathogen that affects a wide variety of salmonids, we evaluated the toxicity of the [Cu(NN1)2]ClO4 complex in three different cell lines, Chinook salmon embryo (CHSE-214), Salmon Head Kidney-1 (SHK-1) and intestinal epithelial cell line (RT-GUT). For this experiment 1 × 10^5 cells were treated with the different compounds (coumarin, Cu(I) salt and copper (I) complex) in a range of concentrations between 512 μg/mL and 2 μg/mL, incubated at 16 °C for 24 h.
(§2) 1 × 10^5 Cells were seeded and incubated at 16 °C for 24 h. Later, the cells were treated with compounds in concentrations from 512 μg/mL to 2 μg/mL solubilized in dimethyl sulfoxide (DMSO, Merck, Darmstadt, Germany) and incubated at 16 °C for 24 h. Subsequently, the cells were collected, pelleted and resuspended in IF buffer (1X buffer and 2% fetal bovine serum) and 1 µL propidium iodide (PI, 1 mg/mL) was added. The cellular viability (negative to PI) was analyzed by flow cytometer using FACSCanto II Cytometer (BD biosciences, University of Santiago of Chile, Santiago, RM, Chile). For positive control, cells were incubated without compounds; for death control, cells were incubated with 50% ethanol; medium control cells were treated with medium containing 1% of DMSO. To calculate the IC50 of compounds in the cell lines, they were analyzed using GraphPad Prism program 5.0 (GraphPad Software, San Diego, CA, USA), the concentrations were transformed into log (10) and the number of events normalized in percentage, for the calculation of IC50 a nonlinear regression was performed.

[2] = test system: Chinook salmon embryo (CHSE-214) cells; experiment: cells; details: for toxicity (in words): CHSE-214, 512 to 2 μg/mL, 24 h; for IC50 (cellular): CHSE-214, 24 h at 16 °C, n = 6
Procedure: as §1, §2

[3] = test system: intestinal epithelial cell line (RT-GUT); experiment: cells; details: for toxicity (in words) / IC50 (cellular): RT-GUT; for toxicity (in words): 512 to 2 μg/mL; for IC50 (cellular): 24 h at 16 °C, n = 6
Procedure: as §1, §2

[4] = test system: Flavobacterium psychrophilum 10094; experiment: Antibacterial test (microdilution: MIC, MBC, IC50); format: cell-based; details: for MBC / MIC: n = 3; for MIC: F. psychrophilum 10094, 72 h post-incubation, visual; for Amount Cu in MBC / Amount Cu in MIC / Amount Total in IC50 / Amount Total in MBC / Amount Total in MIC: F. psychrophilum; for Amount Cu in MBC / Amount Cu in MIC: amount of copper contained; for Amount Total in IC50 / Amount Total in MBC / Amount Total in MIC: total compound
Procedure: A bacterial strain of Flavobacterium psychrophilum (ETECMA) originally isolated from Salmon Coho (Oncorhynchus kisutch) in 2008 in Chiloe, Chile, was used for antibacterial test. […] The strain was cultivated in TYES broth (pH = 7.2) at 15 °C for 48 h with stirring at 180 rpm.
To determine MIC, MBC and IC50 of complex and its precursors, microdilution method was performed with some modifications. F. psychrophilum 10094 (0.4 OD600 nm = 1 × 10^8 CFU/mL, approximately) was inoculated in TYES broth pH 7.2 to 1% cell suspension in 96-well plates (Falcon) and treated with complex and its precursors in serial concentrations between 512 μg/mL to 2 μg/mL and incubated for 72 h at 15 °C with agitation at 180 rpm. The MIC was determined as the lowest compounds concentrations which inhibited bacterial grow by visual comparison with the negative control (TYES broth). […] The MBC was determined as the minimum concentration of the compounds at which the bacterial colony count was diminish to 99.9%. For determination of the half-maximal inhibitory concentration (IC50) of compounds on F. psychrophilum, the OD600 nm of each wells was measured using Nanoquant Infinite M200 Pro (TECAN, Grödig, Austria). For the correct calculation of the OD of each concentration of each compound, wells with TYES medium were used with each concentration without inoculating with F. psychrophilum, this control OD was subtracted obtaining the final OD. Data were analyzed using the GraphPad Prism program 5.0.

[5] = Cyclic voltammetry, Cu(II)/Cu(I) oxidation potential; format: physicochemical; details: vs Ag/AgCl, CH2Cl2, 0.1 M TBAP, quasireversible, ΔE = 114 mV
Procedure: Voltammetry studies were also performed in order to determine the effect of new NN1 ligand on the Cu(II)/Cu(I) oxidation potential considering the well-known fact of high influence of ligands on the metal-centered HOMO energy. Consequently, measurements were registered at room temperature in −1.10 to +1.30 V vs Ag/AgCl potential range.
(§3) All the chemicals were purchased commercially and used without further purification. ^1H, ^13C NMR and 2D spectra were recorded on a Bruker Avance Neo 400 MHz spectrometer (400.133 MHz for ^1H, 40.559 MHz for ^15N and 100.613 MHz for ^13C, (University of Santiago of Chile, Santiago, RM, Chile) equipped with a 5 mm multinuclear broad-band dual probehead, incorporating a z-gradient coil. All the measurement was done in CDCl3 at 300 K. Chemical shifts (in ppm) for ^1H and ^13C were calibrated respect to the residual protonated signal of the solvent (7.26 and 77 ppm respectively) and reported relative to Me4Si. The ^15N signal in ^1H ^15N HMBC were calibrated relative to CH3NO2 (90%) in CDCl3). […] Electronic spectra were recorded on a PerkinElmer UV-VIS Lambda 25 spectrophotometer (University of Santiago of Chile, Santiago, RM, Chile) at room temperature, wavelength range between 200 and 1100 nm from 1.5 × 10^−5 mol/L solutions in dichloromethane to NN1 and [Cu(NN1)2]ClO4. […]

[6] = Stability in solution by UV-Vis spectra; format: physicochemical; details: 72 h after the solution was prepared, CHCl3, air-exposed, room temperature
Procedure: The spectral region below 400 nm in complex correspond at π to π* intraligand transition bands, which are similar profile of free ligand, but undergo a red-shift upon complexation to copper(I) in around 20 nm.
as §3, with “CDCl3). The following abbreviations were used to explain the multiplicities: s = singlet, d = doublet, m = multiplet.” for “CDCl3).”, “Electrochemical behavior was studied by cyclic voltammetry using” for “Electronic spectra were recorded on”, “potentiostat CHI 620E by CH instrument equipment supplied with the electrochemical analyzer CHI software” for “PerkinElmer UV-VIS Lambda 25 spectrophotometer”, “Chile).” for “Chile) at room temperature, wavelength range between 200 and 1100 nm from 1.5 × 10^−5 mol/L solutions in dichloromethane to NN1 and [Cu(NN1)2]ClO4.”

[7] = set-up: method as in PMID 30177987; details: versus Ag/AgCl in CH2Cl2 ref 18; cited from earlier work
[8] = F. psychrophilum 10094, colony count diminished to 99.9%
[9] = F. psychrophilum 10094, 72 h post-incubation at 15 °C, OD600, n = 3

SMILES	toxicity (in words) ([1]; 24 h)	toxicity (in words) [2]	toxicity (in words) ([3]; 24 h)	MBC [4, 8]	IC50 (cellular) [1]	IC50 (cellular) [2]	IC50 (cellular) [3]	IC50 (bacterial) [4, 9]	MIC [4]	Amount Cu in MBC [4]	Amount Cu in MIC [4]	Amount Total in IC50 [4]	Amount Total in MBC [4]	Amount Total in MIC [4]	further results
O=c1ccc2ccccc2o1 [Coumarin, 1-benzopyran-2-one]	toxicity was not observed	toxicity was not observed	toxicity was not observed	>512 µg/mL											IC50 ([1]; 24 h, read-out: IC50 (cellular)): > 512 µg/mL; IC50 ([2]; CHSE-214, 24 h, read-out: IC50 (cellular)): > 512 µg/mL; IC50 ([3]; Oncorhynchus mykiss, Epithelial cell, 24 h, read-out: IC50 (cellular)): > 512 µg/mL; MBC ([4]; Flavobacterium psychrophilum, 10094, F. psychrophilum 10094, colony count diminished to 99.9%, read-out: MBC): < 512 µg/mL; IC50 ([4]; Flavobacterium psychrophilum, F. psychrophilum 10094, 72 h post-incubation at 15 °C, OD600, n = 3, read-out: IC50 (bacterial)): 160 ± 25.5 µg/mL (≈ 1.09 mM); MIC ([4]; Flavobacterium psychrophilum, read-out: MIC): 512 µg/mL (≈ 3.5 mM)
CC#N.CC#N.CC#N.CC#N.[Cu+].[O-][Cl+3]([O-])([O-])[O-] [[Cu(CH3CN)4]ClO4]	concentration-dependent toxicity was observed	concentration-dependent toxicity was observed	concentration-dependent toxicity was observed	64 µg/mL	159 ± 44.6 ^a µg/mL	59.4 ± 4.1 ^a µg/mL	233.9 ± 19.5 ^a µg/mL	10.4 ± 0.7 ^b µg/mL	64 µg/mL	12.5 µg/mL	12.5 µg/mL	10.4 µg/mL	64 µg/mL	64 µg/mL	
O=c1ccc2cc(N=Cc3ccc4ccccc4n3)ccc2o1.O=c1ccc2cc(N=Cc3ccc4ccccc4n3)ccc2o1.[Cu+].[O-][Cl+3]([O-])([O-])[O-] [[Cu(NN1)2]ClO4]	concentration-dependent toxicity was observed	concentration-dependent toxicity was observed	concentration-dependent toxicity was observed	32 µg/mL	30.8 ± 1.3 ^b µg/mL	29.1 ± 1.4 ^b µg/mL	53.0 ± 3.1 ^b µg/mL	16.1 ± 0.9 ^c µg/mL	32 µg/mL	2.7 µg/mL	2.7 µg/mL	16.1 µg/mL	32 µg/mL	32 µg/mL	E1/2 Cu(II)/Cu(I) couple [5]: 0.426 V; stability in solution (changes in UV-Vis spectral bands) [6]: No significant changes in the spectral bands
[Cu+].[O-][Cl+3]([O-])([O-])[O-].c1ccc2nc(-c3ccc4ccccc4n3)ccc2c1.c1ccc2nc(-c3ccc4ccccc4n3)ccc2c1 [[Cu(biq)2]ClO4]															E1/2 [7]: 0.96 V
